± gives the expanded uncertainty stated by the source.
Conditions: Liquid; for mass density: 100 kPa, Buoyancy - hydrostatic balance with magnetic suspension - one sinker
[1] = 322.9 K, Willhelmy plate method

SMILES: CCCCCCCCCCn1cc[n+](C)c1.F[B-](F)(F)F [1-decyl-3-methylimidazolium tetrafluoroborate]
- surface tension liquid-gas (283.21 K, Ring tensiometer): 30.74 ± 0.58 mN/m
- mass density (283.26 K): 1083.12 ± 0.56 kg/m3
- surface tension liquid-gas (287.98 K, Ring tensiometer): 30.53 ± 0.58 mN/m
- surface tension liquid-gas (288.03 K, Willhelmy plate method): 30.17 ± 0.06 mN/m
- mass density (288.04 K): 1079.26 ± 0.56 kg/m3
- surface tension liquid-gas (293.33 K, Ring tensiometer): 30.27 ± 0.58 mN/m
- surface tension liquid-gas (293.46 K, Willhelmy plate method): 29.96 ± 0.06 mN/m
- mass density (293.48 K): 1075.46 ± 0.56 kg/m3
- surface tension liquid-gas (298.21 K, Ring tensiometer): 30.11 ± 0.58 mN/m
- surface tension liquid-gas (298.28 K, Willhelmy plate method): 29.8 ± 0.06 mN/m
- mass density (298.32 K): 1072.34 ± 0.56 kg/m3
- surface tension liquid-gas (303.14 K, Ring tensiometer): 29.86 ± 0.57 mN/m
- surface tension liquid-gas (303.2 K, Willhelmy plate method): 29.62 ± 0.06 mN/m
- mass density (303.26 K): 1069.35 ± 0.56 kg/m3
- surface tension liquid-gas (308.05 K, Ring tensiometer): 29.66 ± 0.57 mN/m
- surface tension liquid-gas (308.07 K, Willhelmy plate method): 29.48 ± 0.06 mN/m
- mass density (308.12 K): 1064.91 ± 0.56 kg/m3
- surface tension liquid-gas (313.12 K, Ring tensiometer): 29.45 ± 0.57 mN/m
- surface tension liquid-gas (313.16 K, Willhelmy plate method): 29.27 ± 0.06 mN/m
- mass density (313.23 K): 1061.76 ± 0.56 kg/m3
- surface tension liquid-gas (318.14 K, Willhelmy plate method): 29.09 ± 0.06 mN/m
- mass density (318.16 K): 1058.04 ± 0.56 kg/m3
- surface tension liquid-gas (318.22 K, Ring tensiometer): 29.18 ± 0.57 mN/m
- surface tension liquid-gas [1]: 28.89 ± 0.06 mN/m
- surface tension liquid-gas (322.91 K, Ring tensiometer): 28.87 ± 0.57 mN/m
- mass density (323.03 K): 1054.91 ± 0.56 kg/m3
- surface tension liquid-gas (328.39 K, Ring tensiometer): 28.69 ± 0.56 mN/m
- surface tension liquid-gas (328.39 K, Willhelmy plate method): 28.66 ± 0.06 mN/m
- mass density (328.43 K): 1051.67 ± 0.56 kg/m3
- surface tension liquid-gas (333.13 K, Willhelmy plate method): 28.48 ± 0.06 mN/m
- mass density (333.15 K): 1048.43 ± 0.56 kg/m3
- surface tension liquid-gas (333.2 K, Ring tensiometer): 28.44 ± 0.56 mN/m
- surface tension liquid-gas (338.26 K, Willhelmy plate method): 28.28 ± 0.06 mN/m
- surface tension liquid-gas (338.28 K, Ring tensiometer): 28.26 ± 0.56 mN/m
- mass density (338.41 K): 1044.81 ± 0.56 kg/m3
- surface tension liquid-gas (343.17 K, Ring tensiometer): 28.02 ± 0.56 mN/m
- surface tension liquid-gas (343.25 K, Willhelmy plate method): 28.12 ± 0.06 mN/m
- mass density (343.37 K): 1041.55 ± 0.56 kg/m3
- surface tension liquid-gas (348.56 K, Willhelmy plate method): 27.89 ± 0.06 mN/m
- surface tension liquid-gas (348.57 K, Ring tensiometer): 27.79 ± 0.56 mN/m
- mass density (348.69 K): 1038.22 ± 0.56 kg/m3
- surface tension liquid-gas (353.03 K, Willhelmy plate method): 27.7 ± 0.06 mN/m
- surface tension liquid-gas (353.07 K, Ring tensiometer): 27.52 ± 0.56 mN/m
- mass density (353.21 K): 1034.92 ± 0.56 kg/m3
- surface tension liquid-gas (357.72 K, Willhelmy plate method): 27.55 ± 0.06 mN/m
- surface tension liquid-gas (357.75 K, Ring tensiometer): 27.31 ± 0.55 mN/m
- mass density (357.87 K): 1032.03 ± 0.56 kg/m3
- mass density (363.98 K): 1028.48 ± 0.56 kg/m3
- surface tension liquid-gas (363.98 K, Ring tensiometer): 27.11 ± 0.55 mN/m
- surface tension liquid-gas (363.98 K, Willhelmy plate method): 27.32 ± 0.06 mN/m

SMILES: CCCCCCCCCCCC[n+]1ccn(C)c1.F[B-](F)(F)F [1-dodecyl-3-methylimidazolium tetrafluoroborate]
- surface tension liquid-gas (327.2 K, Ring tensiometer): 25.89 ± 0.4 mN/m
- mass density (328.83 K): 1027.93 ± 0.38 kg/m3
- surface tension liquid-gas (333.17 K, Willhelmy plate method): 25.79 ± 0.11 mN/m
- surface tension liquid-gas (333.2 K, Ring tensiometer): 25.61 ± 0.4 mN/m
- mass density (333.45 K): 1024.75 ± 0.38 kg/m3
- mass density (337 K): 1022.41 ± 0.38 kg/m3
- surface tension liquid-gas (338 K, Willhelmy plate method): 25.54 ± 0.11 mN/m
- surface tension liquid-gas (338.06 K, Ring tensiometer): 25.59 ± 0.4 mN/m
- surface tension liquid-gas (342.73 K, Willhelmy plate method): 25.4 ± 0.11 mN/m
- surface tension liquid-gas (343.23 K, Ring tensiometer): 25.4 ± 0.39 mN/m
- mass density (343.4 K): 1018.2 ± 0.38 kg/m3
- surface tension liquid-gas (347.11 K, Ring tensiometer): 25.22 ± 0.39 mN/m
- surface tension liquid-gas (347.11 K, Willhelmy plate method): 25.26 ± 0.11 mN/m
- mass density (347.32 K): 1015.89 ± 0.38 kg/m3
- mass density (352.58 K): 1012.18 ± 0.38 kg/m3
- surface tension liquid-gas (353.61 K, Willhelmy plate method): 25.03 ± 0.11 mN/m
- surface tension liquid-gas (353.66 K, Ring tensiometer): 25.11 ± 0.39 mN/m
- mass density (357.71 K): 1009 ± 0.38 kg/m3
- surface tension liquid-gas (359.02 K, Willhelmy plate method): 24.82 ± 0.11 mN/m
- surface tension liquid-gas (359.84 K, Ring tensiometer): 24.78 ± 0.39 mN/m
- mass density (362.85 K): 1005.22 ± 0.38 kg/m3
- surface tension liquid-gas (363.47 K, Willhelmy plate method): 24.64 ± 0.11 mN/m
- surface tension liquid-gas (363.69 K, Ring tensiometer): 24.63 ± 0.39 mN/m

SMILES: CCCCCCCCCn1cc[n+](C)c1.F[B-](F)(F)F [1-nonyl-3-methylimidazolium tetrafluoroborate]
- mass density (269.37 K): 1108.1 ± 0.39 kg/m3
- surface tension liquid-gas (269.49 K, Ring tensiometer): 33.05 ± 0.53 mN/m
- surface tension liquid-gas (274.62 K, Ring tensiometer): 32.75 ± 0.53 mN/m
- mass density (274.7 K): 1104.14 ± 0.39 kg/m3
- surface tension liquid-gas (278.42 K, Ring tensiometer): 32.6 ± 0.53 mN/m
- mass density (278.49 K): 1101.14 ± 0.39 kg/m3
- surface tension liquid-gas (283.61 K, Willhelmy plate method): 32.09 ± 0.07 mN/m
- mass density (283.7 K): 1097.76 ± 0.39 kg/m3
- surface tension liquid-gas (283.73 K, Ring tensiometer): 32.33 ± 0.53 mN/m
- surface tension liquid-gas (288.37 K, Willhelmy plate method): 31.88 ± 0.07 mN/m
- mass density (288.38 K): 1094.04 ± 0.39 kg/m3
- surface tension liquid-gas (288.41 K, Ring tensiometer): 32.14 ± 0.52 mN/m
- mass density (293.34 K): 1090.55 ± 0.39 kg/m3
- surface tension liquid-gas (293.36 K, Ring tensiometer): 31.82 ± 0.52 mN/m
- surface tension liquid-gas (293.36 K, Willhelmy plate method): 31.67 ± 0.07 mN/m
- surface tension liquid-gas (298.28 K, Ring tensiometer): 31.59 ± 0.52 mN/m
- mass density (298.3 K): 1087.19 ± 0.39 kg/m3
- surface tension liquid-gas (298.31 K, Willhelmy plate method): 31.45 ± 0.07 mN/m
- surface tension liquid-gas (303.11 K, Ring tensiometer): 31.38 ± 0.52 mN/m
- surface tension liquid-gas (303.12 K, Willhelmy plate method): 31.29 ± 0.07 mN/m
- mass density (303.16 K): 1084.03 ± 0.39 kg/m3
- surface tension liquid-gas (308.07 K, Ring tensiometer): 31.2 ± 0.52 mN/m
- mass density (308.11 K): 1080.68 ± 0.39 kg/m3
- surface tension liquid-gas (308.11 K, Willhelmy plate method): 31.1 ± 0.07 mN/m
- surface tension liquid-gas (313.04 K, Ring tensiometer): 30.9 ± 0.51 mN/m
- surface tension liquid-gas (313.06 K, Willhelmy plate method): 30.81 ± 0.07 mN/m
- mass density (313.07 K): 1077.08 ± 0.39 kg/m3
- surface tension liquid-gas (317.79 K, Ring tensiometer): 30.65 ± 0.51 mN/m
- mass density (317.8 K): 1073.8 ± 0.39 kg/m3
- surface tension liquid-gas (317.83 K, Willhelmy plate method): 30.66 ± 0.07 mN/m
- surface tension liquid-gas (322.85 K, Ring tensiometer): 30.43 ± 0.51 mN/m
- mass density (322.89 K): 1070.47 ± 0.38 kg/m3
- surface tension liquid-gas [1]: 30.39 ± 0.07 mN/m
- surface tension liquid-gas (328.72 K, Ring tensiometer): 30.17 ± 0.51 mN/m
- surface tension liquid-gas (328.74 K, Willhelmy plate method): 30.12 ± 0.07 mN/m
- mass density (328.78 K): 1067.01 ± 0.38 kg/m3
- mass density (333.51 K): 1063.61 ± 0.38 kg/m3
- surface tension liquid-gas (333.58 K, Ring tensiometer): 29.92 ± 0.51 mN/m
- surface tension liquid-gas (333.58 K, Willhelmy plate method): 29.92 ± 0.07 mN/m
- surface tension liquid-gas (338.63 K, Ring tensiometer): 29.71 ± 0.5 mN/m
- mass density (338.65 K): 1060.05 ± 0.38 kg/m3
- surface tension liquid-gas (338.67 K, Willhelmy plate method): 29.67 ± 0.07 mN/m
- mass density (342.35 K): 1057.5 ± 0.38 kg/m3
- surface tension liquid-gas (342.37 K, Ring tensiometer): 29.49 ± 0.5 mN/m
- surface tension liquid-gas (342.48 K, Willhelmy plate method): 29.52 ± 0.07 mN/m
- surface tension liquid-gas (348.12 K, Willhelmy plate method): 29.3 ± 0.07 mN/m
- surface tension liquid-gas (348.21 K, Ring tensiometer): 29.22 ± 0.5 mN/m
- mass density (348.22 K): 1053.82 ± 0.38 kg/m3
- surface tension liquid-gas (352.1 K, Ring tensiometer): 29.02 ± 0.5 mN/m
- mass density (352.72 K): 1050.55 ± 0.38 kg/m3
- surface tension liquid-gas (353.08 K, Willhelmy plate method): 29.07 ± 0.07 mN/m
- surface tension liquid-gas (357.88 K, Ring tensiometer): 28.83 ± 0.5 mN/m
- mass density (357.94 K): 1047.5 ± 0.38 kg/m3
- surface tension liquid-gas (357.99 K, Willhelmy plate method): 28.86 ± 0.07 mN/m
- mass density (363.54 K): 1043.86 ± 0.38 kg/m3
- surface tension liquid-gas (363.56 K, Ring tensiometer): 28.58 ± 0.49 mN/m
- surface tension liquid-gas (363.61 K, Willhelmy plate method): 28.61 ± 0.07 mN/m

SMILES: CCCCn1cc[n+](C)c1.F[B-](F)(F)F [1-butyl-3-methylimidazolium tetrafluoroborate]
- mass density (264.16 K): 1227.3 ± 0.58 kg/m3
- mass density (268.12 K): 1224.12 ± 0.58 kg/m3
- mass density (273.71 K): 1219.13 ± 0.58 kg/m3
- mass density (278.76 K): 1215.77 ± 0.58 kg/m3
- mass density (283.03 K): 1212.73 ± 0.58 kg/m3
- mass density (288.51 K): 1208.73 ± 0.58 kg/m3
- mass density (293.06 K): 1205.28 ± 0.58 kg/m3
- mass density (298.21 K): 1201.97 ± 0.58 kg/m3
- mass density (303.18 K): 1198.44 ± 0.58 kg/m3
- mass density (307.95 K): 1195.03 ± 0.58 kg/m3
- mass density (313.18 K): 1191.08 ± 0.58 kg/m3
- mass density (318.12 K): 1187.23 ± 0.58 kg/m3
- mass density (323.27 K): 1183.84 ± 0.58 kg/m3
- mass density (328.23 K): 1179.81 ± 0.58 kg/m3
- mass density (333.27 K): 1176.33 ± 0.58 kg/m3
- mass density (338.88 K): 1172.3 ± 0.58 kg/m3
- mass density (343.23 K): 1169.53 ± 0.58 kg/m3
- mass density (348.21 K): 1166.02 ± 0.58 kg/m3
- mass density (353.25 K): 1162.72 ± 0.58 kg/m3
- mass density (358.57 K): 1159.04 ± 0.57 kg/m3
- mass density (363.9 K): 1155.79 ± 0.57 kg/m3

From the NIST ThermoML archive (doi:10.1016/j.jct.2016.04.008)
